Results from the NIST ThermoML archive (doi:10.1021/je049899g).
Numbers after ± are expanded uncertainties.

How the values were obtained:
[1] = 298.15 K, 101.33 kPa, Liquid; for viscosity: Capillary tube (Ostwald / Ubbelohde) method; for speed of sound: Sing-around technique in a fixed-path interferometer; for mass density: Vibrating tube method
[2] = xn = mol fraction of the nth substance listed; conditions: 298.15 K, 101.33 kPa, Liquid; for viscosity: Capillary tube (Ostwald / Ubbelohde) method; for speed of sound: Sing-around technique in a fixed-path interferometer; for mass density: Vibrating tube method

Cc1ccccc1C [1,2-dimethylbenzene]
[1]
Conditions | mass density [kg/m3] | speed of sound [m/s] | viscosity [mPa·s]
– | 875.2 ± 2.3 | 1349 ± 5 | 0.769 ± 0.02

Cc1ccccc1C [1,2-dimethylbenzene] + CC(=O)CC(C)C
[2], x1 = 1
Conditions | mass density [kg/m3] | speed of sound [m/s] | viscosity [mPa·s]
– | 875.2 ± 2.3 | 1349 ± 5 | 0.769 ± 0.02

Cc1cccc(C)c1 [1,3-dimethylbenzene]
[1]
Conditions | mass density [kg/m3] | speed of sound [m/s] | viscosity [mPa·s]
– | 859.4 ± 2.3 | 1323 ± 5 | 0.587 ± 0.016

Cc1cccc(C)c1 [1,3-dimethylbenzene] + CC(=O)CC(C)C
[2], x1 = 1
Conditions | mass density [kg/m3] | speed of sound [m/s] | viscosity [mPa·s]
– | 859.4 ± 2.3 | 1323 ± 5 | 0.587 ± 0.016

Cc1ccc(C)cc1 [1,4-dimethylbenzene]
[1]
Conditions | mass density [kg/m3] | speed of sound [m/s] | viscosity [mPa·s]
– | 856.1 ± 2.3 | 1316 ± 5 | 0.609 ± 0.016

Cc1ccc(C)cc1 [1,4-dimethylbenzene] + CC(=O)CC(C)C
[2], x1 = 1
Conditions | mass density [kg/m3] | speed of sound [m/s] | viscosity [mPa·s]
– | 856.1 ± 2.3 | 1316 ± 5 | 0.609 ± 0.016

CC(=O)CC(C)C [4-methylpentan-2-one]
[1]
Conditions | mass density [kg/m3] | speed of sound [m/s] | viscosity [mPa·s]
– | 796 ± 2.1 | 1215 ± 5 | 0.55 ± 0.015

CC(=O)CC(C)C [4-methylpentan-2-one] + CC(C)c1ccccc1
[2], x2 = 0
Conditions | mass density [kg/m3] | speed of sound [m/s] | viscosity [mPa·s]
– | 796 ± 2.1 | 1215 ± 5 | 0.55 ± 0.015

CC(=O)CC(C)C [4-methylpentan-2-one] + Cc1ccc(C)cc1
[2]
Conditions | mass density [kg/m3] | speed of sound [m/s] | viscosity [mPa·s]
x2 = 0 | 796 ± 2.1 | 1215 ± 5 | 0.55 ± 0.015
x2 = 0.059 | 800.1 ± 2.1 | 1215 ± 5 | 0.553 ± 0.015
x2 = 0.1454 | 805.8 ± 2.1 | 1226 ± 5 | 0.556 ± 0.015
x2 = 0.2887 | 814.9 ± 2.1 | 1248 ± 5 | 0.562 ± 0.015
x2 = 0.4325 | 823.6 ± 2.2 | 1267 ± 5 | 0.567 ± 0.015
x2 = 0.5735 | 832.2 ± 2.2 | 1284 ± 5 | 0.572 ± 0.015
x2 = 0.7166 | 840.5 ± 2.2 | 1300 ± 5 | 0.579 ± 0.015
x2 = 0.8587 | 848.4 ± 2.2 | 1311 ± 5 | 0.591 ± 0.016
x2 = 0.9419 | 853 ± 2.2 | 1315 ± 5 | 0.6 ± 0.016

CC(=O)CC(C)C [4-methylpentan-2-one] + Cc1cccc(C)c1
[2]
Conditions | mass density [kg/m3] | speed of sound [m/s] | viscosity [mPa·s]
x2 = 0 | 796 ± 2.1 | 1215 ± 5 | 0.55 ± 0.015
x2 = 0.0586 | 801.4 ± 2.1 | 1207 ± 5 | 0.554 ± 0.015
x2 = 0.1483 | 809.5 ± 2.1 | 1212 ± 5 | 0.558 ± 0.015
x2 = 0.2898 | 821.2 ± 2.2 | 1233 ± 5 | 0.564 ± 0.015
x2 = 0.4312 | 830.5 ± 2.2 | 1257 ± 5 | 0.567 ± 0.015
x2 = 0.5762 | 837.4 ± 2.2 | 1280 ± 5 | 0.569 ± 0.015
x2 = 0.7187 | 842.8 ± 2.2 | 1299 ± 5 | 0.572 ± 0.015
x2 = 0.8591 | 849 ± 2.2 | 1314 ± 5 | 0.577 ± 0.015
x2 = 0.9429 | 854.4 ± 2.3 | 1321 ± 5 | 0.582 ± 0.015

CC(=O)CC(C)C [4-methylpentan-2-one] + Cc1ccccc1C
[2]
Conditions | mass density [kg/m3] | speed of sound [m/s] | viscosity [mPa·s]
x2 = 0 | 796 ± 2.1 | 1215 ± 5 | 0.55 ± 0.015
x2 = 0.0598 | 801.3 ± 2.1 | 1214 ± 5 | 0.562 ± 0.015
x2 = 0.1483 | 808.9 ± 2.1 | 1220 ± 5 | 0.577 ± 0.015
x2 = 0.2932 | 820.7 ± 2.2 | 1237 ± 5 | 0.605 ± 0.016
x2 = 0.4368 | 832.2 ± 2.2 | 1263 ± 5 | 0.631 ± 0.017
x2 = 0.582 | 843.4 ± 2.2 | 1294 ± 5 | 0.662 ± 0.018
x2 = 0.7227 | 854.5 ± 2.3 | 1318 ± 5 | 0.694 ± 0.018
x2 = 0.8635 | 865.1 ± 2.3 | 1336 ± 5 | 0.73 ± 0.019
x2 = 0.9457 | 871.2 ± 2.3 | 1345 ± 5 | 0.751 ± 0.02

CC(C)c1ccccc1 [isopropylbenzene]
[1]
Conditions | mass density [kg/m3] | speed of sound [m/s] | viscosity [mPa·s]
– | 857.1 ± 2.3 | 1338 ± 5 | 0.739 ± 0.02

CC(C)c1ccccc1 [isopropylbenzene] + CC(=O)CC(C)C
[2]
Conditions | mass density [kg/m3] | speed of sound [m/s] | viscosity [mPa·s]
x1 = 0.0518 | 799.4 ± 2.1 | 1227 ± 5 | 0.563 ± 0.015
x1 = 0.1305 | 804.6 ± 2.1 | 1231 ± 5 | 0.579 ± 0.015
x1 = 0.2631 | 813.4 ± 2.1 | 1234 ± 5 | 0.6 ± 0.016
x1 = 0.4022 | 822.6 ± 2.2 | 1246 ± 5 | 0.621 ± 0.016
x1 = 0.5439 | 831.5 ± 2.2 | 1262 ± 5 | 0.645 ± 0.017
x1 = 0.6917 | 840.3 ± 2.2 | 1282 ± 5 | 0.672 ± 0.018
x1 = 0.842 | 848.7 ± 2.2 | 1309 ± 5 | 0.704 ± 0.019
x1 = 0.9355 | 853.7 ± 2.3 | 1325 ± 5 | 0.725 ± 0.019
x1 = 1 | 857.1 ± 2.3 | 1338 ± 5 | 0.739 ± 0.02
